Test results taken from patent US10882860B2, “Treatment of osteoarthritis” (Samumed, LLC, priority 2015, dated 2021).
Marks after values point to notes of the source that are not given here.

What was measured:
[1] = test system: subjects with moderately to severely symptomatic knee OA; assay: Initial clinical study (first cohort, single IA injection); assay type: in vivo, human; parameters: Change in cartilage thickness: unit not given here
Description: Twenty-one subjects were enrolled in the first cohort of a clinical trial for the treatment of osteoarthritis. All subjects completed a minimum of 12 weeks of follow-up after treatment. This study was a first-in-human, multicenter, placebo-controlled, single-dose, dose-escalation safety study in subjects suffering from moderately to severely symptomatic knee OA. Subjects were treated with a single ultrasound-guided intra-articular injection of a suspension of a non-stoichiometric hydrate of Form I having between 1% and about 20% by weight water or placebo.
A single-use injectable composition containing the compound of Formula (I) suspended in a 0.5% sodium carboxymethylcellulose and 0.05% polysorbate 80 in 10 mM phosphate buffered saline solution, pH 7.4, was prepared. For this study, a dosage of 0.03-0.230 mg of the compound of Formula (I) was administered per 2 mL injection.
Subjects were evaluated using the following primary and secondary assessments:
1. Evaluation of the safety and tolerability of the therapeutic composition administered by intra-articular injection into the target knee joint of moderately to severely symptomatic osteoarthritis (OA) subjects. This included:
a) monitoring for treatment-emergent adverse events (AEs);
b) assessing bone loss by measuring bone biomarkers (cartilage oligomeric matrix protein [COMP], N-terminal propeptides of procollagen type I [PINP], and β-C-terminal telopeptide [β-CTX]) at Weeks 4 and 12 by computed tomography (CT) of both knee joints and at Week 12 after study medication injection compared to baseline; and
c) assessing bone marrow edema by magnetic resonance imaging (MRI) at Week 12 compared to baseline.
2. Assessment of the pharmacokinetic (PK) behavior of the compound of Formula (I) under the conditions of this study at Days 1, 2, 4, and 12.
Estimation of clinical responses to treatment with the therapeutic composition, including:
a) change from baseline in pain visual analog scale (VAS) score assessed at Weeks 1, 2, 4, 8, and 12;
b) change from baseline in the Western Ontario and McMaster Universities Arthritis Index (WOMAC) assessed at Weeks 1, 2, 4, 8, and 12;
c) change from baseline OA pain as assessed by the WOMAC pain subscale at Weeks 1, 2, 4, 8, and 12;
d) change from baseline OA as assessed by the physician global assessment of disease activity at Weeks 1, 2, 4, 8, and 12;
e) change from baseline in total cartilage volume and thickness in the compartments of the target knee joint as documented by Mill at Week 12;
f) changes from baseline in anabolic or catabolic biomarkers indicative of cartilage synthesis or degradation (cartilage oligomeric matrix protein [COMP], N-terminal propeptides of procollagen type I [PINP], and β-C-terminal telopeptide [(3-CTX]) at Weeks 4 and 12;
g) change from baseline in plasma levels of cytokines related to inflammation (interleukin [IL] 1b, IL6, IL8, tumor necrosis factor (TNF), and interferon-alpha [IFNα]) at Weeks 4 and 12; and
h) change from baseline in bone marrow edema as documented by Mill scan of the target knee at baseline and at Week 12.

[2] = Competitive slurry experiments between polymorph forms (thermodynamic stability); assay type: physicochemical; settings: competitive slurry of mixed forms
Description: In order to find out the thermodynamic stability between the different forms, several competitive slurry experiments were carried out. Form 1, Form 2, Form 2*, Form 3, Form 4, Form 4*, Form 4**, Form 5, Form 7, Form 8, Form 9, Form 10, Form 11, Form 11*, and Form 13 (10 mg for each) was mixed and slurried in 2 mL of solvent at both RT and 50° C. The solids were slurried for 3-5 days and then analyzed by XRD.
In order to find out the thermodynamic stability between Form 13 and Form 9, several competitive slurry experiments were carried out. 15 mg of Form 1, Form 9 and Form 13 solid were mixed in 1 mL of toluene, IPAc, and n-butyl acetate, and slurried for 3 days at RT and 50° C.
The residual solid was analyzed by XRD.

[3] = subject Treatment 1, Week 12 vs baseline
[4] = subject Treatment 2, Week 12 vs baseline
[5] = subject Treatment 3, Week 12 vs baseline
[6] = subject Treatment 4, Week 12 vs baseline

Structure (SMILES): CC(C)CC(=O)Nc1cncc(-c2ccc3[nH]nc(-c4nc5c(-c6cccc(F)c6)cncc5[nH]4)c3c2)c1 [compound of Formula (I)]
- Change in WOMAC score [1, 3]: −56
- Change in cartilage thickness [1, 3]: 1.2
- Week 12 cartilage thickness (mm) ([1]; subject Treatment 1, baseline 14.01): 15.21 mm
- Week 12 WOMAC score ([1]; subject Treatment 1, baseline 56): 0
- Change in WOMAC score [1, 4]: −30
- Change in cartilage thickness [1, 4]: 1.2
- Week 12 cartilage thickness (mm) ([1]; subject Treatment 2, baseline 12.12): 13.32 mm
- Week 12 WOMAC score ([1]; subject Treatment 2, baseline 51): 21
- Change in WOMAC score [1, 5]: −27
- Change in cartilage thickness [1, 5]: 1.3
- Week 12 cartilage thickness (mm) ([1]; subject Treatment 3, baseline 13.22): 14.52 mm
- Week 12 WOMAC score ([1]; subject Treatment 3, baseline 59): 32
- Change in WOMAC score [1, 6]: −38
- Change in cartilage thickness [1, 6]: 1.44
- Week 12 cartilage thickness (mm) ([1]; subject Treatment 4, baseline 9.89): 11.33 mm
- Week 12 WOMAC score ([1]; subject Treatment 4, baseline 61): 23
- Form after 3 days; dry ([2]; Acetone, 50° C.): Form 2*/Form 2*
- Form after 3 days; wet ([2]; Acetone, 50° C.): Form 2*/Form 2*
- Form after 5 days; dry ([2]; Acetone, 50° C.): Form 2*/Form 2*
- Form after 5 days; wet ([2]; Acetone, 50° C.): Form 2*/Form 2*
- Form after 3 days; dry ([2]; Acetone, RT): Form 2*/Form 2*
- Form after 3 days; wet ([2]; Acetone, RT): Form 2*/Form 2*
- Form after 5 days; dry ([2]; Acetone, RT): Form 2*/Form 2*
- Form after 5 days; wet ([2]; Acetone, RT): Form 2*/Form 2*
- Form after 3 days; dry ([2]; EA, 50° C.): Form 4/Form 4
- Form after 3 days; wet ([2]; EA, 50° C.): Form 4/Form 4
- Form after 5 days; dry ([2]; EA, 50° C.): Form 4*/Form 4*
- Form after 5 days; wet ([2]; EA, 50° C.): Form 4*/Form 4*
- Form after 3 days; dry ([2]; EA, RT): Form 4/Form 4
- Form after 3 days; wet ([2]; EA, RT): Form 4/Form 4
- Form after 5 days; dry ([2]; EA, RT): Form 4/Form 4
- Form after 5 days; wet ([2]; EA, RT): Form 4/Form 4
- Form after 3 days; dry ([2]; EtOH, 50° C.): Form 2*/Form 2*
- Form after 3 days; wet ([2]; EtOH, 50° C.): Form 2*/Form 2*
- Form after 5 days; dry ([2]; EtOH, 50° C.): Form 2*/Form 2*
- Form after 5 days; wet ([2]; EtOH, 50° C.): Form 2*/Form 2*
- Form after 3 days; dry ([2]; EtOH, RT): Form 2*/Form 2*
- Form after 3 days; wet ([2]; EtOH, RT): Form 2*/Form 2*
- Form after 5 days; dry ([2]; EtOH, RT): Form 2*/Form 2*
- Form after 5 days; wet ([2]; EtOH, RT): Form 2*/Form 2*
- Form after 3 days; dry ([2]; MeOH, 50° C.): Form 2*/Form 2*
- Form after 3 days; wet ([2]; MeOH, 50° C.): Form 2*/Form 2*
- Form after 5 days; dry ([2]; MeOH, 50° C.): Form 2*/Form 2*
- Form after 5 days; wet ([2]; MeOH, 50° C.): Form 2*/Form 2*
- Form after 3 days; dry ([2]; MeOH, RT): Form 2*/Form 2*
- Form after 3 days; wet ([2]; MeOH, RT): Form 2*/Form 2*
- Form after 5 days; dry ([2]; MeOH, RT): Form 2*/Form 2*
- Form after 5 days; wet ([2]; MeOH, RT): Form 2*/Form 2*
- Form after 3 days; dry ([2]; water, 50° C.): Form 13/Form 13
- Form after 3 days; wet ([2]; water, 50° C.): Form 13/Form 13
- Form after 5 days; dry ([2]; water, 50° C.): Form 13/Form 13
- Form after 5 days; wet ([2]; water, 50° C.): Form 13/Form 13
- Form after 3 days; dry ([2]; water, RT): Form 13/Form 13
- Form after 3 days; wet ([2]; water, RT): Form 13/Form 13
- Form after 5 days; dry ([2]; water, RT): Form l & Form 13
- Form after 5 days; wet ([2]; water, RT): Form 13
